# In patent publication US20250108038A1 (priority 2023, published 2025):
# Values joined by “and” are separate entries in the source; they are usually repeats but may differ in a detail not shown here. Equal values may be shown once.
# System: Long Evans rats
# Assay: Behavioral satiety sequence (BSS)
# Type: in vivo, Long Evans rat
# Details: for BSS scoring A (active), Time Bin 13 (60-65 TOTAL), AVG / BSS scoring A (active), Time Bin 14 (65-70 TOTAL), AVG / BSS scoring A (active), Time Bin 15 (70-75 TOTAL), AVG / BSS scoring A (active), Time Bin 16 (75-80 TOTAL), AVG / BSS scoring A (active), Time Bin 17 (80-85 TOTAL), AVG / BSS scoring A (active), Time Bin 18 (85-90 TOTAL), AVG / BSS scoring E (eating/drinking), Time Bin 13 (60-65 TOTAL), AVG / BSS scoring E (eating/drinking), Time Bin 14 (65-70 TOTAL), AVG / BSS scoring E (eating/drinking), Time Bin 15 (70-75 TOTAL), AVG / BSS scoring E (eating/drinking), Time Bin 16 (75-80 TOTAL), AVG / BSS scoring E (eating/drinking), Time Bin 17 (80-85 TOTAL), AVG / BSS scoring E (eating/drinking), Time Bin 18 (85-90 TOTAL), AVG / BSS scoring G (grooming), Time Bin 13 (60-65 TOTAL), AVG / BSS scoring G (grooming), Time Bin 14 (65-70 TOTAL), AVG / BSS scoring G (grooming), Time Bin 15 (70-75 TOTAL), AVG / BSS scoring G (grooming), Time Bin 16 (75-80 TOTAL), AVG / BSS scoring G (grooming), Time Bin 17 (80-85 TOTAL), AVG / BSS scoring G (grooming), Time Bin 18 (85-90 TOTAL), AVG / BSS scoring R (resting), Time Bin 13 (60-65 TOTAL), AVG / BSS scoring R (resting), Time Bin 14 (65-70 TOTAL), AVG / BSS scoring R (resting), Time Bin 15 (70-75 TOTAL), AVG / BSS scoring R (resting), Time Bin 16 (75-80 TOTAL), AVG / BSS scoring R (resting), Time Bin 17 (80-85 TOTAL), AVG / BSS scoring R (resting), Time Bin 18 (85-90 TOTAL), AVG: AVG of animals LT-1 to LT-12
# Excerpt: The Behavioural Satiety Sequence (BSS) is a technique used to evaluate physiological satiety. It is based on the expression of a sequence of behaviors including eating, grooming, locomotor activity, followed by resting, which are typically observed in rodents post-ingestion (Halford et al, 1998, Pharmacology Biochemistry and Behaviour. 61(2): 159-168). The BSS is a widely used model for determining the effects of novel pharmaceuticals on food intake and measures of satiety in rodents (Oliveira et al, 2011, Revista de Nutrição. 24(4) 619-628), and to discriminate the cause of reduced food intake following pharmacological manipulation. For example, treatments that may reduce food intake by non-specific mechanisms, such as immobility, malaise, and taste adulteration, will disrupt this sequence (Halford et al, 1998, Pharmacology Biochemistry and Behaviour. 61(2): 159-168).
# Specifically, 12 male Long-Evans rats were food-deprived for 22 h with a 2 h feeding period each day. Rats were trained to consume daily food during the 2 h period over 25 days. The testing phase was initiated once the rats consistently consumed 16-18 g of food per day with ≤10% variance in amount of feed consumed. Feeding took place in designated individual boxes in a quiet room separate from the housing room. Continuous remote monitoring via video camera during feeding was used to assess the BSS. Food consumption was measured by weighing the total available food before and after the 2 h feeding window, correcting for spillage. Lorcaserin (1 mg/kg) was included as a reference control (Higgins et al, 2011, Neuropsychopharmacology. 37(5): 1177-1191). Subjects were tested using a repeated-measures, Latin square design with 2-3 days wash-out between treatment cycles.
# On scheduled test days, animals were monitored remotely via video camera during the feeding access period. The occurrence of four mutually exclusive behaviors (eating/drinking, grooming, active, rest) were individually scored. Over the 2 h feeding period, behaviors were assessed every 30 seconds. Scores were compiled into 23 5 min timebins (timebin 24 was removed due to early removal of animals) and the frequency of each behavior within each timebin was calculated to determine a temporal frequency of each measure (Rodgers et al, 2010, Pharmacology Biochemistry and Behaviour. 97: 3-14). Percentage time was plotted for each behavioral sequence in each timebin to compare between treatment groups (Higgins et al, 2011, Neuropsychopharmacology. 37(5): 1177-1191).
# [1] = 0.1 mg/kg, raw score per animal LT-1 to LT-12
# [2] = 0.3 mg/kg, raw score per animal LT-1 to LT-12
compound,measurement,setting,value
Clc1ccc(C2(OCC3OCCO3)c3ccccc3C3=NCCN32)cc1 (stereo not drawn) [Compound I-19],"BSS scoring A (active), Time Bin 13 (60-65 TOTAL), AVG",0.1 mg/kg,0.20
same,"BSS scoring A (active), Time Bin 14 (65-70 TOTAL), AVG",0.1 mg/kg,0.10
same,"BSS scoring A (active), Time Bin 15 (70-75 TOTAL), AVG",0.1 mg/kg,0.13
same,"BSS scoring A (active), Time Bin 16 (75-80 TOTAL), AVG",0.1 mg/kg,0.23
same,"BSS scoring A (active), Time Bin 17 (80-85 TOTAL), AVG",0.1 mg/kg,0.36
same,"BSS scoring A (active), Time Bin 18 (85-90 TOTAL), AVG",0.1 mg/kg,0.22
same,"BSS scoring E (eating/drinking), Time Bin 13 (60-65 TOTAL), AVG",0.1 mg/kg,0.74
same,"BSS scoring E (eating/drinking), Time Bin 14 (65-70 TOTAL), AVG",0.1 mg/kg,0.83
same,"BSS scoring E (eating/drinking), Time Bin 15 (70-75 TOTAL), AVG",0.1 mg/kg,0.83
same,"BSS scoring E (eating/drinking), Time Bin 16 (75-80 TOTAL), AVG",0.1 mg/kg,0.63
same,"BSS scoring E (eating/drinking), Time Bin 17 (80-85 TOTAL), AVG",0.1 mg/kg,0.58
same,"BSS scoring E (eating/drinking), Time Bin 18 (85-90 TOTAL), AVG",0.1 mg/kg,0.71
same,"BSS scoring G (grooming), Time Bin 13 (60-65 TOTAL), AVG",0.1 mg/kg,0.03
same,"BSS scoring G (grooming), Time Bin 14 (65-70 TOTAL), AVG",0.1 mg/kg,0.05
same,"BSS scoring G (grooming), Time Bin 15 (70-75 TOTAL), AVG",0.1 mg/kg,0.01
same,"BSS scoring G (grooming), Time Bin 16 (75-80 TOTAL), AVG",0.1 mg/kg,0.05
same,"BSS scoring G (grooming), Time Bin 17 (80-85 TOTAL), AVG",0.1 mg/kg,0.05
same,"BSS scoring G (grooming), Time Bin 18 (85-90 TOTAL), AVG",0.1 mg/kg,0.02
same,"BSS scoring R (resting), Time Bin 13 (60-65 TOTAL), AVG",0.1 mg/kg,0.03
same,"BSS scoring R (resting), Time Bin 14 (65-70 TOTAL), AVG",0.1 mg/kg,0.02
same,"BSS scoring R (resting), Time Bin 15 (70-75 TOTAL), AVG",0.1 mg/kg,0.03
same,"BSS scoring R (resting), Time Bin 16 (75-80 TOTAL), AVG",0.1 mg/kg,0.08
same,"BSS scoring R (resting), Time Bin 17 (80-85 TOTAL), AVG",0.1 mg/kg,0.02
same,"BSS scoring R (resting), Time Bin 18 (85-90 TOTAL), AVG",0.1 mg/kg,0.06
same,"BSS scoring A (active), Time Bin 13 (60-65 TOTAL)",[1],0 (5×) and 4 (2×) and 5 and 1 (3×) and 8
same,"BSS scoring A (active), Time Bin 14 (65-70 TOTAL)",[1],0 (6×) and 1 (2×) and 4 and 2 (3×)
same,"BSS scoring A (active), Time Bin 15 (70-75 TOTAL)",[1],5 and 3 (3×) and 0 (7×) and 2
same,"BSS scoring A (active), Time Bin 16 (75-80 TOTAL)",[1],4 (3×) and 3 and 5 (2×) and 0 (4×) and 2 and 1
same,"BSS scoring A (active), Time Bin 17 (80-85 TOTAL)",[1],0 (3×) and 3 and 9 (2×) and 1 and 6 and 5 and 4 (2×) and 2
same,"BSS scoring A (active), Time Bin 18 (85-90 TOTAL)",[1],0 (4×) and 1 (2×) and 7 and 3 and 5 (2×) and 2 (2×)
same,"BSS scoring E (eating/drinking), Time Bin 13 (60-65 TOTAL)",[1],8 (4×) and 5 (2×) and 6 and 10 (3×) and 9 and 2
same,"BSS scoring E (eating/drinking), Time Bin 14 (65-70 TOTAL)",[1],10 (3×) and 8 (3×) and 9 (3×) and 5 and 7 (2×)
same,"BSS scoring E (eating/drinking), Time Bin 15 (70-75 TOTAL)",[1],5 and 7 (2×) and 10 (4×) and 9 (3×) and 6 and 8
same,"BSS scoring E (eating/drinking), Time Bin 16 (75-80 TOTAL)",[1],6 (3×) and 3 (3×) and 10 and 9 (2×) and 8 (2×) and 4
same,"BSS scoring E (eating/drinking), Time Bin 17 (80-85 TOTAL)",[1],10 (2×) and 7 and 0 and 9 (2×) and 3 and 4 and 5 (2×) and 6 and 2
same,"BSS scoring E (eating/drinking), Time Bin 18 (85-90 TOTAL)",[1],10 (4×) and 8 (2×) and 7 (3×) and 0 and 5 and 3
same,"BSS scoring G (grooming), Time Bin 13 (60-65 TOTAL)",[1],0 (9×) and 1 (3×)
same,"BSS scoring G (grooming), Time Bin 14 (65-70 TOTAL)",[1],0 (6×) and 1 (6×)
same,"BSS scoring G (grooming), Time Bin 15 (70-75 TOTAL)",[1],0 (11×) and 1
same,"BSS scoring G (grooming), Time Bin 16 (75-80 TOTAL)",[1],0 (9×) and 4 and 1 (2×)
same,"BSS scoring G (grooming), Time Bin 17 (80-85 TOTAL)",[1],0 (7×) and 1 (4×) and 2
same,"BSS scoring G (grooming), Time Bin 18 (85-90 TOTAL)",[1],0 (10×) and 1 (2×)
same,"BSS scoring R (resting), Time Bin 13 (60-65 TOTAL)",[1],2 and 0 (9×) and 1 (2×)
same,"BSS scoring R (resting), Time Bin 14 (65-70 TOTAL)",[1],0 (10×) and 1 (2×)
same,"BSS scoring R (resting), Time Bin 15 (70-75 TOTAL)",[1],0 (9×) and 1 (3×)
same,"BSS scoring R (resting), Time Bin 16 (75-80 TOTAL)",[1],0 (5×) and 2 and 3 and 1 (5×)
same,"BSS scoring R (resting), Time Bin 17 (80-85 TOTAL)",[1],0 (10×) and 1 (2×)
same,"BSS scoring R (resting), Time Bin 18 (85-90 TOTAL)",[1],0 (7×) and 1 (4×) and 3
same,"BSS scoring A (active), Time Bin 13 (60-65 TOTAL), AVG",0.3 mg/kg,0.09
same,"BSS scoring A (active), Time Bin 14 (65-70 TOTAL), AVG",0.3 mg/kg,0.13
same,"BSS scoring A (active), Time Bin 15 (70-75 TOTAL), AVG",0.3 mg/kg,0.32
same,"BSS scoring A (active), Time Bin 16 (75-80 TOTAL), AVG",0.3 mg/kg,0.13
same,"BSS scoring A (active), Time Bin 17 (80-85 TOTAL), AVG",0.3 mg/kg,0.17
same,"BSS scoring A (active), Time Bin 18 (85-90 TOTAL), AVG",0.3 mg/kg,0.23
same,"BSS scoring E (eating/drinking), Time Bin 13 (60-65 TOTAL), AVG",0.3 mg/kg,0.81
same,"BSS scoring E (eating/drinking), Time Bin 14 (65-70 TOTAL), AVG",0.3 mg/kg,0.80
same,"BSS scoring E (eating/drinking), Time Bin 15 (70-75 TOTAL), AVG",0.3 mg/kg,0.56
same,"BSS scoring E (eating/drinking), Time Bin 16 (75-80 TOTAL), AVG",0.3 mg/kg,0.79
same,"BSS scoring E (eating/drinking), Time Bin 17 (80-85 TOTAL), AVG",0.3 mg/kg,0.69
same,"BSS scoring E (eating/drinking), Time Bin 18 (85-90 TOTAL), AVG",0.3 mg/kg,0.62
same,"BSS scoring G (grooming), Time Bin 13 (60-65 TOTAL), AVG",0.3 mg/kg,0.03
same,"BSS scoring G (grooming), Time Bin 14 (65-70 TOTAL), AVG",0.3 mg/kg,0.03
same,"BSS scoring G (grooming), Time Bin 15 (70-75 TOTAL), AVG",0.3 mg/kg,0.04
same,"BSS scoring G (grooming), Time Bin 16 (75-80 TOTAL), AVG",0.3 mg/kg,0.01
same,"BSS scoring G (grooming), Time Bin 17 (80-85 TOTAL), AVG",0.3 mg/kg,0.05
same,"BSS scoring G (grooming), Time Bin 18 (85-90 TOTAL), AVG",0.3 mg/kg,0.10
same,"BSS scoring R (resting), Time Bin 13 (60-65 TOTAL), AVG",0.3 mg/kg,0.07
same,"BSS scoring R (resting), Time Bin 14 (65-70 TOTAL), AVG",0.3 mg/kg,0.05
same,"BSS scoring R (resting), Time Bin 15 (70-75 TOTAL), AVG",0.3 mg/kg,0.08
same,"BSS scoring R (resting), Time Bin 16 (75-80 TOTAL), AVG",0.3 mg/kg,0.08
same,"BSS scoring R (resting), Time Bin 17 (80-85 TOTAL), AVG",0.3 mg/kg,0.09
same,"BSS scoring R (resting), Time Bin 18 (85-90 TOTAL), AVG",0.3 mg/kg,0.06
same,"BSS scoring A (active), Time Bin 13 (60-65 TOTAL)",[2],0 (7×) and 2 and 3 and 1 (2×) and 4
same,"BSS scoring A (active), Time Bin 14 (65-70 TOTAL)",[2],1 (4×) and 3 and 0 (6×) and 8
same,"BSS scoring A (active), Time Bin 15 (70-75 TOTAL)",[2],0 (2×) and 4 (2×) and 6 and 8 and 1 (2×) and 3 (3×) and 5
